Measurements reported in patent US20160031909A1, “PORPHYRAZINE OPTICAL AND DUAL OPTICAL/ MR CONTRAST AND THERAPEUTIC AGENTS” (HOFFMAN/BARRETT, LLC, priority 2013, published 2016).
Entries after “also recorded” stand apart in the source; their conditions may differ.

Experiments:
MDA-MB-231 cells = experiment: In vitro cellular uptake, Gd(III) content by ICP-MS; assay type: cell-based; settings: MDA-MB-231, 24 hours, compared with equivalent DOTA-Gd(III)
Method: Breast tumor cells (MDA-MB-231) were treated with M-Pz-Gd(III) complexes at varying concentrations for 24 hours, washed, digested in acid, and Gd(III) content was measured by ICP-M S (FIG. 1). An M-Pz-Gd(III) dose of 50 μM corresponds to an overall Gd(III) dose of 100 μM because two Gd(III) ions are present per molecule. Cells also were treated with an equivalent amount of DOTA-Gd(III), an agent known not to cross cell membranes.
After cell harvesting, an aliquot of the cell suspensions was mixed with Guava ViaCount reagent and allowed to stain at room temperature for at least 5.0 minutes (no longer than 20 minutes). Stained samples were vortexed for 10 seconds and counted. Percent cell viability was determined via manual analysis using a Guava EasyCyte Mini Personal Cell Analyzer (PCA) and ViaCount software module. For each sample, 1000 events were acquired with dilution factors that were determined based upon optimum machine performance (about 25-70 cells/μL).
Quantification of Gd was accomplished using ICP-MS of acid digested samples. Solution samples were digested in ACS reagent grade nitric acid (70%, Sigma, St. Louis, Mo., USA) and incubated in a water bath at 70° C. for at least 2 hours to allow for complete sample digestion. […]

[1] = test system: MDA-MB-231 orthotopic breast tumor; experiment: In vivo tumor MRI in orthotopic breast tumor model; set-up: species or system athymic nude mice
Method: Cu-Pz-Gd(III) was examined as a contrast agent in vivo in an orthotopic breast tumor model in athymic nude mice. MDA-MB-231 breast tumor cells expressing mCherry fluorescent protein were implanted in the mammary fat pad of mice and tumors were allowed to grow to about 5 mm in diameter at which time mice were treated with 450 nmol (50 mg/kg) Cu-Pz-Gd(III) together with saline treated control mice (FIG. 3A).
In a separate experiment focusing only on short time points (0-225 min), groups of mice (n=3) were treated with Cu-Pz-Gd(III) (450 nmol, 50 mg/kg), DOTA-Gd(I I I) (900 nmol, 25 mg/kg), and saline as a negative control (FIG. 4). Mice were imaged continuously after tail vein injections. […] Regions of interest (ROIs) were defined outside the periphery of tumors, at the inner rim, and at the center.
MDA-MB-231 cells (1×10^6) expressing mCherry fluorescent protein were inoculated subcutaneously (1:1 v/v matrigel:PBS) on the right mammary fat pad. Cells were maintained in DMEM media supplemented with 10% FBS prior to inoculation. The athymic nude mice, Crl:NU(NCr)-Foxnl^nm, were purchased from Charles River, Portage at 5-6 weeks old and 16-18 gram were allowed to acclimate for 5 days. One week post inoculation, each animal was screened for mCherry fluorescence wavelength using the IVIS small animal fluorescence imaging system to verify presence of the tumor.
Mice were anesthetized in an induction chamber with 3% inhaled isoflurane in oxygen, then transferred to an imaging bed with circulating warm water heating system, MRI compatible respiratory monitoring (SA Instruments, Stony Brook, N.Y.) and 1-2% isoflurane delivered via nosecone to maintain a surgical plane of anesthesia with respiratory rate at 90-100 breaths/min Mice were imaged prone with the tumor centered in a 40 mm diameter quadrature volume coil (Bruker Biospec, Billerica, Mass.). An AutoPac automated positioning system was used to reproducibly center the animals in the MRI system.
Mice were positioned in the MRI scanner as described above and localizer images were acquired. T1 maps were acquired using a FAIR-RARE non-selective inversion recovery sequence with static TR (18,000 ms) and TE (6.1 ms), and variable TI (30.5, 100, 200, 300, 500, 600, 700, 800, 900, 1000, 1100, 1200, 1300, 1400, 1600, 2000, 2500, 3000, 3500, 4000, 4500, 5000, and 6000 ms). Imaging parameters were as follows: field of view (FOV)=40×20 mm^2, matrix size(MTX)=512×133 pixels, number of slices=1, slice thickness=1.0 mm, and 1 average (total scan time=5 m 26 s).
Images were acquired at baseline, and 4, 24, and 48 hours after injection of 150 μL of imaging agent via the tail vein. One control animal was injected with saline; the remaining 9 animals were injected with 450 nmol Cu-Pz-Gd(III). Three animals were sacrificed after 4 hour, 24 hour, and 48 hour timepoints, respectively; the organs were collected for ICP-MS (described below) to measure biodistribution.
Mice were positioned in the MRI scanner as described above and localizer images were acquired. To improve signal to noise ratio, reduce respiratory artifacts, and increase tumor coverage, for this study we used a multi slice T1 map acquired using a variable repetition time saturation recovery sequence (RARE-VTR) with static TE (8.2 ms) and variable TR (175, 300, 600, 800, 1200, 2000, 4000 ms). Imaging parameters were as follows: FOV=10×7.5 mm, MTX=80×60, number of axial slices=5, slice thickness=1.0 mm, and 1 average (total scan time=6 min 48 sec). […]

Substance: Cu[Pz(C19H28N8O7Gd)2]. Pz=18,21-bis(2-(1H-1,2,3-triazole-4-yl) ethoxy)-tris-[1,4-dioxino[g,l,q](2R,3R)-2,3-dimethoxy-2,3-dimethyll 25H,27H-benzo[b]porphyrazine; C19H28N8O7Gd=N-methyl-2-aminoacetamide-4,7,10-tris(carboxymethyl)-1,4,7,10-tetraazacyclododecylgadolinium(III)) [Cu-Pz-Gd(III)]
- Cellular uptake, Gd(III) content per cell (MDA-MB-231 cells): two-fold increase
- tumor T1 over time ([1]; 0-225 min after tail vein injection, Cu-Pz-Gd(III) 450 nmol (50 mg/kg), DOTA-Gd(III) 900 nmol (25 mg/kg)): persistent; also recorded: becomes progressively shorter; also recorded: steady accumulation of Cu-Pz-Gd(III) in tumor tissue with greater accumulation in the necrotic core; also recorded: decrease in T1 is much more persistent
- MR contrast enhancement of tumors ([1]; 450 nmol (50 mg/kg), 4 hour timepoint): significant contrast enhancement
- time at which T1 of tumor center is roughly equivalent to the rim ([1]; 450 nmol, 50 mg/kg): 135 min
- average T1 of tumor regions ([1]; 50 mg/kg, relative to saline treated controls): decreased relative to saline-treated controls; also recorded: decreased relative to saline treated controls
